Experimental data reported in patent publication US11839637B2, “Neuron activator” (Kinjirushi Co., Ltd., priority 2017, dated 2023).

Experiments:
Type in all cases: cell-based, rat
[1] = tested on: PC12 cells; experiment: Hydrogen peroxide toxicity resistance test, MTT (Experimental example 6); conditions: for MTT assay in medium with hydrogen peroxide: hydrogen peroxide 100 μM, component alone or combination with 6-MSITC
Method: In Experimental example 6, resistance of PC12 cells against hydrogen peroxide was tested. The test method is the same as that of Experimental example 5, except that hydrogen peroxide was added to the differentiation medium B, instead of amyloid β in Experimental example 5 above. A concentration of hydrogen peroxide in the differentiation medium B was 100 μM.

[2] = tested on: PC12 cells; experiment: Dopamine production test of PC12 cells (Experimental example 1); conditions: 72 hours; for dopamine-producing ability, as compared to a case without these components: any one component in the medium, NGF 50 ng/ml
Method: Dopamine production tests of PC12 cells, using various components, were carried out as follows.
(§1) Such passage was repeated at least three times.
(§2) Supernatants were removed.
(§3) Each sample is numbered 1 to 39.
A concentration of dopamine in each supernatant was measured. Measurement of dopamine concentration was carried out using ELIZA KIT (manufactured by ImmuSmol, Product No.: BA-E-5300) according to the specifications. A ratio of dopamine concentration in each supernatant was expressed as a percentage (%) of a control of which dopamine concentration in the supernatant is 1.
The same applies to FIGS. 2 to 5. In FIG. 1, τ means statistically significant. * means that synergistic effect was confirmed by combining two components. Synergistic effect herein means that use of two components in combination can produce more amount of dopamine than a sum of amounts of dopamine produced when each component is used alone.

[3] = tested on: PC12 cells; experiment: Neurite extension test of PC12 cells (Experimental example 3); conditions: 72 hours; for neurite extension effect, as compared to a case without these components: any one component in the medium, NGF 50 ng/ml
Method: Neurite extension tests of PC12 cells, using various components, were carried out as follows.
as §1, §2, §3
Supernatants were removed. Three microscopic images (bright field, ×10 images, three wells per well) of PC12 cells settled in each well were taken. The shape of the whole PC12 cells in the images was observed. A shown in FIG. 6, when PC12 cells undergo differentiation, a neurite 2 extends from a cell body 1. The total number of PC12 cells, and the number of cells having the neurite 2 with a length L2 were counted. The length L2 is a longer length than a longer diameter L1 of the cell body 1. The number of cells having the neurite with the length L2 was divided by the total number of cells to obtain an extension percentage of the PC12 cells. […] The extension percentage was expressed by an average value of all PC12 cells appearing in all images. […] The same applies to FIGS. 8 to 11. […] Synergistic effect herein means that use of two components in combination can increase the extension percentage as compared to a sum of extension percentages when each component is used alone.

[4] = tested on: PC12 cells; experiment: Toxicity test to PC12 cells using MTT reagent (Experimental example 2); conditions: 72 hours, 6-MSITC and DHA 2.5-160 μM, curcumin 2.5-40 μM, isorhamnetin 0.02-10 μM
Method: In order to investigate toxicity of each component to PC12 cells, the PC12 cells were cultured in the same manner as in the above steps (1) to (4) of Experimental example 1, except for components added to the medium.
as §2

[5] = tested on: PC12 cells; experiment: Toxicity test to PC12 cells using MTT reagent (Experimental example 4); conditions: 72 hours, 6-MSITC and DHA 2.5-160 μM, curcumin 2.5-40 μM, isorhamnetin 2.5-20 μM
Method: In order to investigate toxicity of each component to PC12 cells, the PC12 cells were cultured in the same manner as in the above steps (1) to (4) of Experimental example 3, except for components added to the medium.
as §2

Structure (SMILES)	MTT assay, as compared to the medium without hydrogen peroxide (control) ([1]; medium containing only hydrogen peroxide, 100 μM)	amount of dopamine production produced by the PC12 cells vs control ([2]; 0.1 μM added to the medium)	amount of dopamine production produced by the PC12 cells vs control ([2]; 2.5 μM added to the medium)	dopamine-producing ability, as compared to a case without these components [2]	extension of PC12 cells (extension percentage) ([3]; 0.1 μM added to the medium)	extension of PC12 cells (extension percentage) ([3]; 0.5 μM added to the medium)	extension of PC12 cells (extension percentage) ([3]; 2.5 μM added to the medium)	neurite extension effect, as compared to a case without these components [3]	MTT assay in medium with hydrogen peroxide [1]	amount of dopamine production produced by the PC12 cells vs control ([2]; 0.02 μM added to the medium)	amount of dopamine production produced by the PC12 cells vs control ([2]; 0.5 μM added to the medium)	MTT assay compared with control (not using the component) [4]	toxicity to PC12 cells ([4]; MTT)	extension of PC12 cells (extension percentage) ([3]; 0.02 μM added to the medium)	MTT assay compared with control (not using the component) [5]	toxicity to PC12 cells ([5]; MTT)
OO [hydrogen peroxide, reference compound]	significantly decreased	–	–	–	–	–	–	–	–	–	–	–	–	–	–	–
COc1cc(/C=C/C(=O)CC(=O)/C=C/c2ccc(O)c(OC)c2)ccc1O [curcumin, Curcumin]	–	higher than the control	higher than the control	enhanced	significant extension enhancement	significant extension enhancement	significant extension enhancement	enhanced	a value without problem	–	–	–	–	–	–	–
COc1cc(-c2oc3cc(O)cc(O)c3c(=O)c2O)ccc1O [isorhamnetin, Isorhamnetin]	–	higher than the control	–	enhanced	significant extension enhancement	significant extension enhancement	–	enhanced	a value without problem	higher than the control	higher than the control	higher than the case of not using them (control)	low	significant extension enhancement	higher than the case of not using them (control)	low
